Reference: PMC4787783 (2015)

Experiments:
[1] = test system: Bulges-TB1 (RNA, G4) UUGUGGUGGGUGGGUGGGU; assay: fluorescence enhancement
[2] = test system: Spinach (RNA, aptamer) GCAGCCGGCUUGUUGAGUAGAGUGUGAGCUCCGUAACUGGUCGCGUC/GACGCGACCGAAUGAAAUGGUGAAGGACGGGUCCAGCCGGCUGC; assay: fluorescence enhancement
[3] = test system: tRNA-Cys fragment (RNA, G4) GGGGGUAUAGCUCAGUGGUAGAGCAUUUGA; assay: fluorescence enhancement
[4] = test system: tRNA-Ala fragment (RNA, G4) GGGGGUGUAGCUCAGUGGUAGAGCGCGUGC; assay: fluorescence enhancement
[5] = test system: Tel22-mut (RNA, single strand) AGUGUUAGUGUUAGUGUUAGUG; assay: fluorescence enhancement; conditions: 40 mM K+; 20 mM Tris-HCl pH 7.0; 2 µM CyT, 4 µM RNA; very weak fluorescence
[6] = test system: NRAS-mut (RNA, single strand) GUGAGUUGCGUGUCUGUG; assay: fluorescence enhancement; conditions: 40 mM K+; 20 mM Tris-HCl pH 7.0; 2 µM CyT, 4 µM RNA; very weak fluorescence
[7] = test system: 3-WJ (RNA, junction) AGCGCAACCCC/UCGUCAGCU/GGGACGACGU; assay: fluorescence enhancement; conditions: 40 mM K+; 20 mM Tris-HCl pH 7.0; 2 µM CyT, 4 µM RNA; very weak fluorescence
[8] = test system: 4-WJ (RNA, junction) GCGC/UUUAGC/GAGGUCCU/AGAA; assay: fluorescence enhancement; conditions: 40 mM K+; 20 mM Tris-HCl pH 7.0; 2 µM CyT, 4 µM RNA; very weak fluorescence
[9] = test system: Tel22 (RNA, G4) AGGGUUAGGGUUAGGGUUAGGG; assay: fluorescence titration, 1:1 fit; conditions: 40 mM K+; 20 mM Tris-HCl pH 7.0, 25 °C; 2 µM CyT
[10] = test system: VEGF (RNA, G4) GGAGGAGGGGGAGGAGGA; assay: fluorescence titration, 1:1 fit; conditions: 40 mM K+; 20 mM Tris-HCl pH 7.0, 25 °C; 2 µM CyT
[11] = test system: TRF2 (RNA, G4) CGGGAGGGCGGGGAGGGC; assay: fluorescence titration, 1:1 fit; conditions: 40 mM K+; 20 mM Tris-HCl pH 7.0, 25 °C; 2 µM CyT
[12] = test system: BCL-2 (RNA, G4) AGGGGGCCGUGGGGUGGGAGCUGGGG; assay: fluorescence titration, 1:1 fit; conditions: 40 mM K+; 20 mM Tris-HCl pH 7.0, 25 °C; 2 µM CyT
[13] = test system: NRAS (RNA, G4) GGGAGGGGCGGGUCUGGG; assay: fluorescence titration, 1:1 fit; conditions: 40 mM K+; 20 mM Tris-HCl pH 7.0, 25 °C; 2 µM CyT
[14] = test system: ssAf17 (RNA, single strand) CUGAGUUGUAUAUAUUCG; assay: fluorescence titration, 1:1 fit; conditions: 40 mM K+; 20 mM Tris-HCl pH 7.0, 25 °C; 2 µM CyT
[15] = test system: ssAf22 (RNA, single strand) UGAGCUUAAUUGUAUAUAUUCG; assay: fluorescence titration, 1:1 fit; conditions: 40 mM K+; 20 mM Tris-HCl pH 7.0, 25 °C; 2 µM CyT
[16] = test system: HP18 (HP-18) (RNA, hairpin) CAGUACAGAUCUGUACUG; assay: fluorescence titration, 1:1 fit; conditions: 40 mM K+; 20 mM Tris-HCl pH 7.0, 25 °C; 2 µM CyT
[17] = test system: dsNC (RNA, duplex) UUGUGCUACCAGGAGUCUG/CAGACUCCUGGUAGCACAA; assay: fluorescence titration, 1:1 fit; conditions: 40 mM K+; 20 mM Tris-HCl pH 7.0, 25 °C; 2 µM CyT
[18] = test system: Tel22 (RNA, G4) AGGGUUAGGGUUAGGGUUAGGG; assay: fluorescence enhancement; conditions: about 290-fold enhancement
[19] = test system: VEGF (RNA, G4) GGAGGAGGGGGAGGAGGA; assay: fluorescence enhancement; conditions: about 200-fold enhancement
[20] = test system: ssAf17 (RNA, single strand) CUGAGUUGUAUAUAUUCG; assay: fluorescence enhancement; conditions: about 100-fold enhancement
[21] = test system: HP18 (HP-18) (RNA, hairpin) CAGUACAGAUCUGUACUG; assay: fluorescence enhancement; conditions: about 330-fold enhancement

Q: Which results are given for `CC(=Cc1sc2ccc3ccccc3c2[n+]1CCCS(=O)(=O)[O-])C=C1Sc2ccc3ccccc3c2N1CCCS(=O)(=O)O`?
A: binding ([1]; 40 mM K+, 20 mM Tris-HCl pH 7.0, 2 µM CyT, 4 µM RNA, about 1800-fold enhancement): yes; binding ([2]; 40 mM K+, 20 mM Tris-HCl pH 7.0, 2 µM CyT, 4 µM RNA, about 327-fold enhancement): yes; binding ([3]; 40 mM K+, 20 mM Tris-HCl pH 7.0, 2 µM CyT, 4 µM RNA, about 205-fold enhancement): yes; binding ([4]; 40 mM K+, 20 mM Tris-HCl pH 7.0, 2 µM CyT, 4 µM RNA, about 200-fold enhancement): yes; binding [5]: weak; binding [6]: weak; binding [7]: weak; binding [8]: weak; binding constant [9]: (1.17 ± 0.37) × 10^5 M^-1; binding constant [10]: (1.44 ± 0.29) × 10^5 M^-1; binding constant [11]: (2.81 ± 0.63) × 10^5 M^-1; binding constant [12]: (1.94 ± 0.29) × 10^5 M^-1; binding constant [13]: (3.49 ± 0.77) × 10^5 M^-1; binding constant [14]: (4.40 ± 0.38) × 10^4 M^-1; binding constant [15]: (4.03 ± 0.36) × 10^4 M^-1; binding constant [16]: (2.89 ± 0.28) × 10^4 M^-1; binding constant [17]: (2.42 ± 0.25) × 10^4 M^-1

Q: How did the binding [18] turn out when `CN1C(=Cc2cc[n+](C)c3ccccc23)Sc2ccccc21` was run?
A: yes

Q: And the binding [19]?
A: yes

Q: What about the binding [20] of the same molecule?
A: yes

Q: What about the binding [21] of the same molecule?
A: yes

Q: What about the binding ([1]; about 570-fold enhancement) of the same molecule?
A: yes

Q: What about the binding ([2]; about 200-fold enhancement) of the same molecule?
A: yes

Q: What about the binding ([3]; about 150-fold enhancement) of the same molecule?
A: yes

Q: And the binding ([4]; about 230-fold enhancement)?
A: yes
